The text below walks through data of patent publication US4719200A, “Amino acid derivatives and antihypertensive drugs containing the same” (Ajinomoto Co., Inc., priority 1984, dated 1988).

For this assay, the system named is spontaneously hypertensive rates (SHR rats). Briefly: Measurement of change in blood pressure (systolic, indirect, conscious rats) after one oral dose. Format: in vivo, rat. The settings on record: for Systolic Blood Pressure, Lowest Value: after administration; for Δ Blood Pressure (systolic): lowest value minus value before administration. The procedure: The antihypertensive activities of the amino acid derivatives as prepared above were determined.
As subject animals, there were used 5 spontaneously hypertensive rates (SHR rats) which had been sufficiently trained and confirmed to be hypertensive (mode, the body weight of 400 g) per a sample.
As an instrument for measuring the blood pressure there was used Programmed Electro-Sphygmomanometer PE-300 (Narco Co., U.S.A.), and the blood pressure was indirectly measured on conscious rats.
An aqueous solution of a sample (0.05 m mole/kg) was once force-fed into the stomach by means of a […] probe. As a control, the water as deionized was fed to the same animals as above.

[1] abbreviates: second table (Examples 25-43), before administration.
The mark [2] stands for this setting: SHR rats, 5 per sample, before single force-feeding into the stomach of 0.05 m mole/kg aqueous solution.
[3] abbreviates: SHR rats, single force-feeding into the stomach, 0.05 m mole/kg.

Regarding `CCOC(=O)N[C@@H](CCSC)C(=O)N1CCC[C@H]1C(=O)N1CCC[C@H]1C(=O)[O-].[Na+]` [Example 36, N--Ethoxycarbonyl-L-methionyl-L-prolyl-L proline sodium salt], under “second table (Examples 25-43)”, the “Hrs. After Admin. (of lowest systolic blood pressure value)” value was determined as 8 h; the “Systolic Blood Pressure, Lowest Value” amounted to 206; the “Δ Blood Pressure (systolic)” value is reported as -17. The “Systolic Blood Pressure, Value Before Administration” value under setting [1] worked out at 223.

For `CC[C@H](C)[C@H](NS(=O)(=O)CC)C(=O)N1CCC[C@H]1C(=O)N1CCC[C@H]1C(=O)O.[Na]` [Example 37, N--ethanesulphonyl-L-isoleucyl-L-prolyl-proline sodium salt], where the note is “second table (Examples 25-43)”, the “Hrs. After Admin. (of lowest systolic blood pressure value)” value came out at 8 h; the “Systolic Blood Pressure, Lowest Value” was found to be 194; the “Δ Blood Pressure (systolic)” value is recorded as -22. Under setting [1], the “Systolic Blood Pressure, Value Before Administration” value was 218.

Consider `CCS(=O)(=O)N[C@@H](Cc1ccccc1)C(=O)N1CCC[C@H]1C(=O)N1CCC[C@H]1C(=O)O` [Example 38, N--ethanesulfonyl-L-phenylalanyl-L-prolyl-L-proline], for which, where the note is “second table (Examples 25-43)”, the “Hrs. After Admin. (of lowest systolic blood pressure value)” value was determined as 8 h; the “Systolic Blood Pressure, Lowest Value” is 201; the “Δ Blood Pressure (systolic)” value is -34. Further, the “Systolic Blood Pressure, Value Before Administration” value under setting [1] stood at 235.

`CCS(=O)(=O)NCC(=O)N1CCC[C@H]1C(=O)N1CCC[C@H]1C(=O)O` [Example 39, N--ethanesulfonyl-glycyl-L-prolyl-L-proline]: under “second table (Examples 25-43)”, the “Hrs. After Admin. (of lowest systolic blood pressure value)” value is 8 h; the “Systolic Blood Pressure, Lowest Value” stood at 215; the “Δ Blood Pressure (systolic)” value is reported as -18. Under setting [1], the “Systolic Blood Pressure, Value Before Administration” value worked out at 232.

For the compound `CCS(=O)(=O)N[C@@H](CCC(=O)O)C(=O)N1CCC[C@H]1C(=O)N1CCC[C@H]1C(=O)O` [Example 40, N--ethane sulfonyl-L-glutamyl-L-prolyl-L proline], where the note is “second table (Examples 25-43)”, the “Hrs. After Admin. (of lowest systolic blood pressure value)” value was 8 h; the “Systolic Blood Pressure, Lowest Value” amounted to 202; the “Δ Blood Pressure (systolic)” value is recorded as -18. Under setting [1], the “Systolic Blood Pressure, Value Before Administration” value was found to be 220.

For the compound `CCS(=O)(=O)N[C@@H](CCCNC(=N)N)C(=O)N1CCC[C@H]1C(=O)N1CCC[C@H]1C(=O)O` [Example 41, N--ethane sulfonyl-L-arginyl-L-prolyl-L-proline], under “second table (Examples 25-43)”, the “Hrs. After Admin. (of lowest systolic blood pressure value)” value was 7 h; the “Systolic Blood Pressure, Lowest Value” is on record as 185; the “Δ Blood Pressure (systolic)” value was -19. The “Systolic Blood Pressure, Value Before Administration” value under setting [1] is listed as 204.

For `CCS(=O)(=O)N[C@@H](CO)C(=O)N1CCC[C@H]1C(=O)N1CCC[C@H]1C(=O)[O-].[Na+]` [Example 42, N--ethane sulfonyl-L-seryl-L-prolyl-L-proline sodium salt], for the setting “second table (Examples 25-43)”, the “Hrs. After Admin. (of lowest systolic blood pressure value)” value was 24 h; the “Systolic Blood Pressure, Lowest Value” was found to be 200; the “Δ Blood Pressure (systolic)” value is reported as -20. Under setting [1], the “Systolic Blood Pressure, Value Before Administration” value worked out at 220.

For `CCS(=O)(=O)N[C@@H](CCSC)C(=O)N1CCC[C@H]1C(=O)N1CCC[C@H]1C(=O)O` [Example 43, N--ethane sulfonyl-L-methionyl-L-prolyl-L-proline], where the note is “second table (Examples 25-43)”, the “Hrs. After Admin. (of lowest systolic blood pressure value)” value came to 8 h; the “Systolic Blood Pressure, Lowest Value” was found to be 198; the “Δ Blood Pressure (systolic)” value is given as -31. The “Systolic Blood Pressure, Value Before Administration” value under setting [1] stood at 229.

Regarding “N-(3-phenylpropionyl)-L-alanyl-L-prolyl-L-proline L-arginine salt [Example 2]”, under setting [2], the “Systolic Blood Pressure, Value Before Administration” value turned out to be 190 mm Hg. In addition, under setting [3], the “Hours after administration (of lowest systolic blood pressure value)” value (from here on “Hours after administration”) stood at 24 h; the “Systolic Blood Pressure, Lowest value after administration” value was 154 mm Hg; the “Δ Blood Pressure (systolic)” value is listed as -36 mm Hg.

Take “N-(benzylthio) thiocarbonyl-L-alanyl-L-prolyl-L-proline L-arginine salt [Example 9]”: under setting [2], the “Systolic Blood Pressure, Value Before Administration” value stood at 216 mm Hg. Further, under setting [3], the “Hours after administration” value stood at 24 h; the “Systolic Blood Pressure, Lowest value after administration” value was 191 mm Hg; the “Δ Blood Pressure (systolic)” value is -25 mm Hg.

On to “N-benzylsulfonyl-L-alanyl-L-prolyl-L-proline L-arginine salt [Example 11]”, for which, under setting [2], the “Systolic Blood Pressure, Value Before Administration” value is recorded as 202 mm Hg. Further, under setting [3], the “Hours after administration” value stood at 8 h; the “Systolic Blood Pressure, Lowest value after administration” value is given as 174 mm Hg; the “Δ Blood Pressure (systolic)” value is -28 mm Hg.

Regarding “N-phenylcarbamoyl-L-alanyl-L-prolyl-L-proline L-arginine salt [Example 17]”, the “Systolic Blood Pressure, Value Before Administration” value under setting [2] is recorded as 218 mm Hg. In addition, under setting [3], the “Hours after administration” value came to 24 h; the “Systolic Blood Pressure, Lowest value after administration” value is reported as 203 mm Hg; the “Δ Blood Pressure (systolic)” value was -15 mm Hg.

On to “N-phenylthiocarbamoyl-L-alanyl-L-prolyl-L-proline L-arginine salt [Example 18]”, for which, under setting [2], the “Systolic Blood Pressure, Value Before Administration” value came to 224 mm Hg. Also, under setting [3], the “Hours after administration” value stood at 24 h; the “Systolic Blood Pressure, Lowest value after administration” value stood at 211 mm Hg; the “Δ Blood Pressure (systolic)” value is recorded as -13 mm Hg.
